Test results as given in patent US12600717B2, “Tricyclic compounds as inhibitors of KRAS” (Incyte Corporation, priority 2021, dated 2026).

How the values were obtained:
KRAS G12V = KRAS G12V (Homo sapiens, UniProt P01116, G12V); experiment: GDP-GTP exchange assay (bodipy-GDP/GppNHp, SOS1), KRAS G12V; format: biochemical; conditions: bodipy-loaded KRAS G12V 2.5 nM, 3 hours incubation after adding GppNHp-SOS1; read-out: G12V_exchange IC50
Procedure: (§1) The inhibitor potency of the exemplified compounds was determined in a fluorescence based guanine nucleotide exchange assay, which measures the exchange of bodipy-GDP (fluorescently labeled GDP) for GppNHp (Non-hydrolyzable GTP analog) to generate the active state of KRAS in the presence of SOS1 (guanine nucleotide exchange factor). Inhibitors were serially diluted in DMSO and a volume of 0.1 μL was transferred to the wells of a black low volume 384-well plate. 5 μL/well volume of bodipy-loaded KRAS G12D diluted to 2.5 nM in assay buffer (25 mM Hepes pH 7.5, 50 mM NaCl, 10 mM MgCl2 and 0.01% Brij-35) was added to the plate and pre-incubated with inhibitor for 4 hours at ambient temperature. Appropriate controls (enzyme with no inhibitor or with a G12D inhibitor) were included on the plate. The exchange was initiated by the addition of a 5 μL/well volume containing 1 mM GppNHp and 300 nM SOS1 in assay buffer. The 10 μL/well reaction concentration of the bodipy-loaded KRAS G12D, GppNHp, and SOS1 were 2.5 nM, 500 uM, and 150 nM, respectively. The reaction plates were incubated at ambient temperature for 2 hours, a time estimated for complete GDP-GTP exchange in the absence of inhibitor. For the KRAS G12V mutant, similar guanine nucleotide exchange assays were used with 2.5 nM as final concentration for the bodipy loaded KRAS proteins and 3 hours incubation after adding GppNHp-SOS1 mixture. A cyclic peptide described to selectively bind G12D mutant (Sakamoto et al., BBRC 484.3 (2017), 605-611) or internal compounds with confirmed binding were used as positive controls in the assay plates. Fluorescence intensities were measured on a PheraStar plate reader instrument (BMG Labtech) with excitation at 485 nm and emission at 520 nm.
(§2) Either GraphPad prism or Genedata Screener SmartFit was used to analyze the data. The IC50 values were derived by fitting the data to a four parameter logistic equation producing a sigmoidal dose-response curve with a variable Hill coefficient.
(§3) The symbol “†” indicates IC50≤100 nM, “††” indicates IC50>100 nM but ≤1 μM; and “†††” indicates IC50 is >1 μM but ≤5 μM, “††††” indicates IC50 is >5 μM but ≤10 μM. “NA” indicates IC50 not available.

KRAS G12D = KRAS G12D (Homo sapiens, UniProt P01116, G12D); experiment: GDP-GTP exchange assay (bodipy-GDP/GppNHp, SOS1), KRAS G12D; format: biochemical; conditions: bodipy-loaded KRAS G12D 2.5 nM, 4 hours pre-incubation with inhibitor, 2 hours after GppNHp/SOS1; read-out: G12D_exchange IC50
Procedure: as §1, §2, §3

KRAS G12V, sequence (P01116 1-188 isoform P01116-2 G12V): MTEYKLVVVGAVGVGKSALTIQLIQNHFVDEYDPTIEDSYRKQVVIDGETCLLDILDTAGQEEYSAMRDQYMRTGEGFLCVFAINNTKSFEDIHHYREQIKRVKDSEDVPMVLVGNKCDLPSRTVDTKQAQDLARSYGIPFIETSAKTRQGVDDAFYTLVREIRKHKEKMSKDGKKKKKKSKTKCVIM
KRAS G12D, sequence (P01116 1-188 isoform P01116-2 G12D): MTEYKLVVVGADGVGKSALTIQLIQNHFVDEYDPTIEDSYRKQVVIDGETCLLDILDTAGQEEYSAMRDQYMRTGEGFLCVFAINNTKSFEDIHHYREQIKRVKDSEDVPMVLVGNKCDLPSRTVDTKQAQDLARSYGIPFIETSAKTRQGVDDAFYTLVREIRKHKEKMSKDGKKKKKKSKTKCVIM

Row | Structure (SMILES) | IC50 (KRAS G12V) [nM] | IC50 (KRAS G12D) [nM]
1 | CC(=O)N1CCCC(c2nc3c(N4CC(N(C)C)C4)nc4c(F)c(-c5cc(O)cc6ccccc56)c(C)cc4c3n2C2C3CNC2C3)C1 (single isomer, unassigned) [Example 1a, 1-(3-(1-((endo)-2-azabicyclo[2.1.1]hexan-5-yl)-4-(3-(dimethylamino)azetidin-1-yl)-6-fluoro-7-(3-hydroxynaphthalen-1-yl)-8-methyl-1H-imidazo[4,5-c]quinolin-2-yl)piperidin-1-yl)ethan-1-one] |  | 100 to 1000
2 | CN(C)C(=O)CCc1nc2c(N3CC(N(C)C)C3)nc3c(-c4cccc(C#N)c4)c(-c4cc(O)cc5ccccc45)c(CCC#N)cc3c2n1[C@@H]1[C@@H]2CN[C@H]1C2 (relative stereo) [Example 12, 3-(1-((endo)-2-azabicyclo[2.1.1]hexan-5-yl)-8-(2-cyanoethyl)-6-(3-cyanophenyl)-4-(3-(dimethylamino)azetidin-1-yl)-7-(3-hydroxynaphthalen-1-yl)-1H-imidazo[4,5-c]quinolin-2-yl)-N,N-dimethylpropanamide] | 5000 to 10000 | 100 to 1000
3 | CCc1nc2c(N3CC(N(C)C)C3)nc3c(F)c(-c4cc(O)cc5ccccc45)c(-c4cnco4)cc3c2n1C1C2CNC1C2 (single isomer, unassigned) [Example 6a, 4-(1-((endo)-2-azabicyclo[2.1.1]hexan-5-yl)-4-(3-(dimethylamino)azetidin-1-yl)-2-ethyl-6-fluoro-8-(oxazol-5-yl)-1H-imidazo[4,5-c]quinolin-7-yl)naphthalen-2-ol] | 5000 to 10000 | 100 to 1000
4 | CN(C)C1CN(c2nc3c(F)c(-c4cc(O)cc5ccccc45)c(CCC#N)cc3c3c2nc(-c2ccn(Cc4ccccc4)n2)n3C2C3CNC2C3)C1 (single isomer, unassigned) [Example 36a, 3-(2-(1-benzyl-1H-pyrazol-3-yl)-1-((endo)-2-azabicyclo[2.1.1]hexan-5-yl)-4-(3-(dimethylamino)azetidin-1-yl)-6-fluoro-7-(3-hydroxynaphthalen-1-yl)-1H-imidazo[4,5-c]quinolin-8-yl)propanenitrile] | ≤ 100 | 100 to 1000
5 | CN(C)C(=O)CCc1nc2c(N3CC(N(C)C)C3)nc3c(F)c(-c4nc(N)cc5ccccc45)c(CCC#N)cc3c2n1C1C2CNC1C2 (single isomer, unassigned) [Example 31a, 3-(7-(3-aminoisoquinolin-1-yl)-1-endo-(2-azabicyclo[2.1.1]hexan-5-yl)-8-(2-cyanoethyl)-4-(3-(dimethylamino)azetidin-1-yl)-6-fluoro-1H-imidazo[4,5-c]quinolin-2-yl)-N,N-dimethylpropanamide] | 5000 to 10000 | 100 to 1000
6 | CN(C)C(=O)CCc1nc2c(N3CC(N(C)C)C3)nc3c(F)c(-c4cc(O)cc5ccccc45)cc(CN4CCC(C#N)C4)c3c2n1C1C2CNC1C2 (stereo not drawn) [Example 16, 3-(1-((endo)2-azabicyclo[2.1.1]hexan-5-yl)-9-((3-cyanopyrrolidin-1-yl)methyl)-4-(3-(dimethylamino)azetidin-1-yl)-6-fluoro-7-(3-hydroxynaphthalen-1-yl)-1H-imidazo[4,5-c]quinolin-2-yl)-N,N-dimethylpropanamide] | 5000 to 10000 | 100 to 1000
7 | C[C@H](Oc1nc2c(F)c(-c3cccc4cccc(C#N)c34)c(Cl)cc2c2c1ncn2[C@H]1CCN(C(=O)C2CC2)[C@H](CC#N)C1)[C@@H]1CCCN1C [Example 43, 8-(8-chloro-1-((2S,4S)-2-(cyanomethyl)-1-(cyclopropanecarbonyl)piperidin-4-yl)-6-fluoro-4-((S)-1-((S)-1-methylpyrrolidin-2-yl)ethoxy)-1H-imidazo[4,5-c]quinolin-7-yl)-1-naphthonitrile] | 100 to 1000 | ≤ 100
8 | CC(=O)N1CCN(C(=O)CCc2nc3c(N4CC(N(C)C)C4)nc4c(F)c(-c5cc(O)cc6ccccc56)c(CCC#N)cc4c3n2C2C3CNC2C3)CC1 (single isomer, unassigned) [Example 4a, 3-(2-(3-(4-acetylpiperazin-1-yl)-3-oxopropyl)-1-((endo)-2-azabicyclo[2.1.1]hexan-5-yl)-4-(3-(dimethylamino)azetidin-1-yl)-6-fluoro-7-(3-hydroxynaphthalen-1-yl)-1H-imidazo[4,5-c]quinolin-8-yl)propanenitrile] | ≤ 100 | ≤ 100
9 | CN(C)C(=O)CCc1nc2c(N3CC(N(C)C)C3)nc3c(F)c(-c4cc(O)cc5ccccc45)cc(CO)c3c2n1[C@@H]1[C@@H]2CN[C@H]1C2 (relative stereo) [Example 15, 3-(1-((endo)2-azabicyclo[2.1.1]hexan-5-yl)-4-(3-(dimethylamino)azetidin-1-yl)-6-fluoro-9-(hydroxymethyl)-7-(3-hydroxynaphthalen-1-yl)-1H-imidazo[4,5-c]quinolin-2-yl)-N,N-dimethylpropanamide] | 1000 to 5000 | ≤ 100

Continued, values first:

Row | IC50 (KRAS G12V) [nM] | IC50 (KRAS G12D) [nM] | Structure (SMILES)
10 | 100 to 1000 | ≤ 100 | CCc1nc2c(N3CC(N(C)C)C3)nc3c(F)c(-c4cc(O)cc5ccccc45)c(C(CC#N)n4cccn4)cc3c2n1C1C2CNC1C2 (single isomer, unassigned) [Example 7a, 3-(1-((endo)-2-azabicyclo[2.1.1]hexan-5-yl)-4-(3-(dimethylamino)azetidin-1-yl)-2-ethyl-6-fluoro-7-(3-hydroxynaphthalen-1-yl)-1H-imidazo[4,5-c]quinolin-8-yl)-3-(1H-pyrazol-1-yl)propanenitrile]
11 | 1000 to 5000 | ≤ 100 | CN(C)C(=O)CCc1nc2c(N3CC(N(C)C)C3)nc3c(F)c(-c4cc(O)cc(Cl)c4C4CC4)ccc3c2n1C1C2CNC1C2 (stereo not shown) [Example 11, 3-(1-(2-azabicyclo[2.1.1]hexan-5-yl)-7-(3-chloro-2-cyclopropyl-5-hydroxyphenyl)-4-(3-(dimethylamino)azetidin-1-yl)-6-fluoro-1H-imidazo[4,5-c]quinolin-2-yl)-N,N-dimethylpropanamide]
12 | 100 to 1000 | ≤ 100 | CCc1nc2c(OC[C@@]34CCCN3C[C@H](F)C4)nc3c(F)c(-c4c[nH]c5ccc(C)cc45)c(CCC#N)cc3c2n1C1C2CNC1C2 (stereo partly drawn) [Example 28, 3-(1-(2-azabicyclo[2.1.1]hexan-5-yl)-2-ethyl-6-fluoro-4-(((2R,7aS)-2-fluorotetrahydro-1H-pyrrolizin-7a(5H)-yl)methoxy)-7-(5-methyl-1H-indol-3-yl)-1H-imidazo[4,5-c]quinolin-8-yl)propanenitrile]
13 | ≤ 100 | ≤ 100 | CN(C)C1CN(c2nc3c(F)c(-c4cc(O)cc5ccccc45)c(CCC#N)cc3c3c2nc(-c2ccn(-c4ccccc4)n2)n3C2C3CNC2C3)C1 (single isomer, unassigned) [Example 34a, 3-(1-((endo)-2-azabicyclo[2.1.1]hexan-5-yl)-4-(3-(dimethylamino)azetidin-1-yl)-6-fluoro-7-(3-hydroxynaphthalen-1-yl)-2-(1-phenyl-1H-pyrazol-3-yl)-1H-imidazo[4,5-c]quinolin-8-yl)propanenitrile]
14 | 100 to 1000 | ≤ 100 | CCc1nc2c(Oc3ccccc3)nc3c(F)c(-c4cc(O)cc5ccccc45)c(CCC#N)cc3c2n1C1C2CNC1C2 (single isomer, unassigned) [Example 24a, 3-(1-((endo)-2-Azabicyclo[2.1.1]hexan-5-yl)-2-ethyl-6-fluoro-7-(3-hydroxynaphthalen-1-yl)-4-phenoxy-1H-imidazo[4,5-c]quinolin-8-yl)propanenitrile]
15 | ≤ 100 | ≤ 100 | C[C@H](Oc1nc2c(F)c(-c3cccc4cccc(C#N)c34)c(Cl)cc2c2c1ncn2[C@H]1CCN(C(N)=O)[C@H](CC#N)C1)[C@@H]1CCCN1C [Example 42, (2S,4S)-4-(8-chloro-7-(8-cyanonaphthalen-1-yl)-6-fluoro-4-((S)-1-((S)-1-methylpyrrolidin-2-yl)ethoxy)-1H-imidazo[4,5-c]quinolin-1-yl)-2-(cyanomethyl)piperidine-1-carboxamide]
16 | ≤ 100 | ≤ 100 | CN(C)C1CN(c2nc3c(F)c(-c4cc(O)cc5ccccc45)c(CCC#N)cc3c3c2nc(CCC(=O)N2CC4(CCOCC4)C2)n3C2C3CNC2C3)C1 (single isomer, unassigned) [Example 3a, 3-(1-((endo)-2-azabicyclo[2.1.1]hexan-5-yl)-4-(3-(dimethylamino)azetidin-1-yl)-6-fluoro-7-(3-hydroxynaphthalen-1-yl)-2-(3-oxo-3-(7-oxa-2-azaspiro[3.5]nonan-2-yl)propyl)-1H-imidazo[4,5-c]quinolin-8-yl)propanenitrile]
